What was measured:
[1] = Examination of the crystallisation in emulsion; assay type: physicochemical; settings: with respect to the entire mass of the cosmetic formulation (0.025% by weight)
Description: According to the indications in the following Table 1, two cosmetic formulations were produced as emulsions [E(I) and E (II)]. The product from example 1a contained pure 2-benzylidene-3,3-dimethyl-5,6-dimethoxy-1-indanone and was used in the emulsion E(I). For the emulsion E(II), 2-benzylidene-3,3-dimethyl-5,6-dimethoxy-1-indanone from example 1a was used, but it was contaminated with benzyl-3,3-dimethyl-5,6-dimethoxy-1-indanone in such a manner that a 5% by weight contamination was present, with respect to the total mass of the contaminated product.
The emulsions were covered and left to stand at ambient temperature for 3 days. Subsequently, the emulsions were examined under a microscope. Emulsion E(I) had no crystals. In emulsion E(II), crystal seeds having a size of from 4 to 7 μm were able to be observed.

[2] = Solubility in cosmetic oils; assay type: physicochemical; settings: in contrast to the target product

- proportion of by-product that initiates the formation of crystallisation seeds in the cosmetic formulation [1]: 250 ppm
SMILES: COc1cc2c(cc1OC)C(C)(C)C(Cc1ccccc1)C2=O (centres unmarked) [2-benzyl-3,3-dimethyl-5,6-dimethoxy-1-indanone]
- solubility in cosmetic oils [2]: cannot be readily dissolved in cosmetic oils
